# From US10604523B2, “1-aryl-4-methyl-[1,2,4]triazolo[4,3-a]quinoxaline derivatives” (Janssen Pharmaceutica NV, priority 2011, dated 2020)
# Like-named read-outs stand apart in the source and are kept apart here.
# Columns and labels:
# [1] = Plasma radiometabolite analysis of [18F]B-23; assay type: in vivo, rat; conditions: rat plasma, n=1
# Description: The metabolic stability of the tracer was studied in normal rats by determination of the relative amounts of parent tracer and radiometabolites in plasma and brain at 2 min and 10 min p.i. of the tracer. […] (n=1), blood was collected in lithium heparin containing tubes (4.5 mL LH PST tubes; BD vacutainer, BD, Franklin Lakes, USA) and stored on ice. Brain was dissected and rinsed with saline (decapitation was preferred since it was difficult to have the rat perfused already at 2 min p.i.). For the 10 min timepoint, rats (n=1) were injected with about 37 MBq of tracer and sacrificed at 10 min p.i by administering an overdose of Nembutal (CEVA Sante Animale, 200 mg/kg intraperitoneal). The rats were perfused by injection of saline into the left ventricle until the liver turned pale. During perfusion, blood was collected and stored on ice. Brain was isolated.
# For the plasma radiometabolite analysis, the blood was centrifugated for 10 min at 3000 rpm to separate the plasma. A volume of about 0.1 mL of plasma sample was isolated and spiked with about 10 μL of authentic non-radioactive reference material (1 mg/mL) for identification. The plasma was then injected onto an HPLC system consisting of a Chromolith Performance column (C18, 3 mm×100 mm, Merck) that was eluted with mixtures of 0.05 M NaOAc pH 5.5 (solvent A) and acetonitrile (solvent B). The following method was used for the analysis: isocratic elution with 100% A for 4 min at a flow rate of 0.5 mL/min, then linear gradient to 90% B by 14 min at a flow rate of 1 mL/min, and isocratic elution with a mixture of 10% A and 90% B at a flow rate of 1 mL/min until 17 min. After passing through an in-line UV detector (254 nm) and over a 3 in. NaI(Tl) scintillation detector connected to a single channel analyzer (Gabi box, Raytest, Straubenhardt Germany), the HPLC eluate was collected per minute using an automatic fraction collector. The radioactivity in all fractions was measured using an automated gamma counter. The peak corresponding to the intact tracer eluted at ˜11 min. Polar radiometabolite(s) were eluting from 1 to 3 min. Slightly more polar radiometabolites (relatively to the polarity of the intact tracer) were eluting just before the intact tracer. Faster metabolisation is observed in plasma compared to brain. At 2 min p.i., about 70% of the recovered radioactivity was present as intact tracer. Two more polar radiometabolites (M1, M3) were observed of which one (M3) was closely eluting to the intact tracer. At 10 min p.i., the presence of a large amount of a third polar metabolite (M2, also closely eluting to the parent compound) was observed which accounted for about 60% of the recovered radioactivity. At 10 min p.i., only ˜20% of the recovered radioactivity was still present as intact tracer.
# [2] = Biodistribution study of [18F]B-23; conditions: normal rats, mean ± SD, n=3
# Description: The biodistribution study was carried out in male Wistar rats (body weight 320-370 g) at 2 min, 10 min and 30 min post injection (p.i.) (n=3/time point). […] Blood and major organs were collected in tared tubes and weighed. The radioactivity in blood, organs and other body parts was measured using an automated gamma counter. The distribution of radioactivity in different parts of the body at different time points p.i. of the tracer was calculated and expressed as percentage of injected dose (% ID), and as standardized uptake values (SUV) for the selected organs. % ID is calculated as counts per minute (cpm) in organ/total cpm recovered. SUVs are calculated as (radioactivity in cpm in organ/weight of the organ in g)/(total counts recovered/body weight in g). For calculation of total radioactivity in blood, blood mass was assumed to be 7% of the body mass.
# [3] = target: T1, Rat recombinant PDE10A (rPDE10A2) (Rattus norvegicus, UniProt Q9QYJ6); assay: In vitro assay PDE10A (SPA, 3H-cAMP); assay type: biochemical; conditions: for IC50: read-out: PIC50 PDE10 (converted)
# T1 construct: made in house; host or cells: Sf9 insect cells (baculovirus)
# T1 sequence (Q9QYJ6 1-794): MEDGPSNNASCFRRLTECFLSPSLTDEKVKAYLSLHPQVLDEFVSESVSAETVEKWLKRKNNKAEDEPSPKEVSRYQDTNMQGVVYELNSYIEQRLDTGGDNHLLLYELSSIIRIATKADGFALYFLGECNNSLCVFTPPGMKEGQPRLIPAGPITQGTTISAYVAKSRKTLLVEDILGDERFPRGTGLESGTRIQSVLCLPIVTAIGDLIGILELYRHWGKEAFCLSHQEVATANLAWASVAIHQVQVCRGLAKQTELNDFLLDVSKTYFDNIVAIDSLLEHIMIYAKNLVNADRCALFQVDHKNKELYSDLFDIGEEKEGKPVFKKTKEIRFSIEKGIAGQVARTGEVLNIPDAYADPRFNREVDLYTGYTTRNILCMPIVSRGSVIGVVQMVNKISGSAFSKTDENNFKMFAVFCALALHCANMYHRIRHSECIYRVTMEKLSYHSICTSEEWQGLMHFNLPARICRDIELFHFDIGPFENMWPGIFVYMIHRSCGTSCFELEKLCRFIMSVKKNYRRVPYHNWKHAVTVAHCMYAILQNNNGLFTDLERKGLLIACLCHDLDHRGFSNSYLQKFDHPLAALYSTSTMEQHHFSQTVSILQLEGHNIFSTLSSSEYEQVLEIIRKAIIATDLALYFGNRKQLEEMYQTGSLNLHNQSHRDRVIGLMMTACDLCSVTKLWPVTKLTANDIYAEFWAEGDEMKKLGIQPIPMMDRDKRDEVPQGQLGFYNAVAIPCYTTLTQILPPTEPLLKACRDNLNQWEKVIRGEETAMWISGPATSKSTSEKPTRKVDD
# [4] = test system: cAMP and cGMP levels in the rat brain (hippocampus and striatum); assay: Effect of PDE-inhibitors ex-vivo studies in rat: cAMP and cGMP levels in brain; conditions: 10 mg/kg s.c., -1 h
# Description: Upon arrival, the animals (body weight 210-240 g) were housed in groups of 5 and fed normal chow at libitum.
# Compounds and/or solvent were administered either orally, subcutaneously or IV. […] After microwave, the rats were decapitated and the heads cooled immediately with ice cold physiological saline. […] 10 vol (w/v) of 0.1N HCl were added. The tissue was homogenized for 3 min at 30 Hz using a Tissuelyser from Qiagen.
# The homogenate was transferred into an Eppendorf tube (1.5 ml) and after centrifugation for 15 min at 1600 g in a pre-cooled (4C) Eppendorf centrifuge, the supernatant was collected and stored at −80° C. until analysis.
# The cAMP and cGMP levels were measured in the rat brain (hippocampus and striatum) to establish in vivo target engagement and central pharmacological effect of PDE2 inhibition.
# [5] = target: T2, Human recombinant PDE2A (hPDE2A) (Homo sapiens, UniProt O00408); assay: In vitro assay PDE2A (SPA, 3H-cGMP); assay type: biochemical; conditions: read-out: pIC50 PDE2 (converted)
# T2 construct: made in house; host or cells: Sf9 insect cells (baculovirus)
# Description: Tested compounds were dissolved and diluted in 100% DMSO to a concentration 100 fold of the final concentration in the assay. Compound dilutions (0.4 μl) were added in 384 well plates to 20 μl of incubation buffer (50 mM Tris pH 7.8, 8.3 mM MgCl2, 1.7 mM EGTA). 10 μl of hPDE2A enzyme in incubation buffer was added and the reaction was started by addition of 10 μl substrate to a final concentration of 10 μM cGMP and 0.01 μCi ^3H-cGMP. The reaction was incubated for 45 minutes at room temperature. […] After sedimentation of the beads during 30 minutes the radioactivity was measured in a Perkin Elmer Topcount scintillation counter and results were expressed as cpm. For blanc values the enzyme was omitted from the reaction and replaced by incubation buffer. Control values were obtained by addition of a final concentration of 1% DMSO instead of compound.
# [6] = test system: Apomorphine-induced agitation; assay: Reversal of Apomorphine-induced Agitation in Rats (APO); assay type: in vivo, rat
# Description: Apomorphine (1.0 mg/kg, i.v.)-induced agitation was scored every 5 min over the first hour after injection of apomorphine. The score system was: (3) pronounced, (2) moderate, (1) slight, and (0) absent. […] For the present purpose, the cumulative agitation score over the whole 60-min observation period was used as a measure to describe the maximum effect (Max effect).
# [7] = -log IC50 expressed in mol/L, rPDE10A2, 60 nM cAMP
# T2 sequence (O00408 whole entry): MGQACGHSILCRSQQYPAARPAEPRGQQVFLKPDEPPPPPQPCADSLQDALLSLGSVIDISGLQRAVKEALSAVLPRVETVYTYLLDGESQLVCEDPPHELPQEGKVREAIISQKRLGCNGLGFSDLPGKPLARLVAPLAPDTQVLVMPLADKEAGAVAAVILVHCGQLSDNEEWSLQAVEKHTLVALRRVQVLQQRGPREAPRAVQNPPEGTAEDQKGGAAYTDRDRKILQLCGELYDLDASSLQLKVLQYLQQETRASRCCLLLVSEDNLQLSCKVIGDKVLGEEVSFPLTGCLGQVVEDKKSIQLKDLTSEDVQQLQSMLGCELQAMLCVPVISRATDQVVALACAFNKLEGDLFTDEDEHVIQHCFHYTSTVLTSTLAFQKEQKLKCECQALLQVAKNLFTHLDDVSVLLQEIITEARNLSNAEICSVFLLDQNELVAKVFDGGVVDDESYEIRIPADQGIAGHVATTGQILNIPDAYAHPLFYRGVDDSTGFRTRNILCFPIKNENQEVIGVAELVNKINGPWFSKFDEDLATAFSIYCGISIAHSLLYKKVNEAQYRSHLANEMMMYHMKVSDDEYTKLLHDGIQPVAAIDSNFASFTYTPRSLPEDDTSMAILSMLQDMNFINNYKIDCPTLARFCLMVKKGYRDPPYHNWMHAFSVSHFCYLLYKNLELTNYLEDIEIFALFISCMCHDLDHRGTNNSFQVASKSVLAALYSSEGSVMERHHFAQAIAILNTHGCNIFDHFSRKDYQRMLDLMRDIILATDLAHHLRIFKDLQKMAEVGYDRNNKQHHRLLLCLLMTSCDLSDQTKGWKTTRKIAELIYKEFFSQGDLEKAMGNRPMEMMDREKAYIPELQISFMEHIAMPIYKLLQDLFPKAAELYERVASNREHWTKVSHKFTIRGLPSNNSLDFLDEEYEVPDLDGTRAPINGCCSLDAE
compound,measurement,setting,value
"Cc1nc2ccc(CN3CCOCC3)cc2n2c(-c3c([18F])cccc3Cl)nnc12 [[18F]B-23, 1-[2-Chloro-6-(^18F)fluorophenyl]-4-methyl-8-(morpholin-4-ylmethyl)[1,2,4]triazolo[4,3-a]quinoxaline]",% in plasma Intact tracer,[1]; 2 min p.i.,70%
same,% in plasma Polar metabolite M1,[1]; 2 min p.i.,16%
same,% in plasma Polar metabolite M3,[1]; 2 min p.i.,14%
same,% in plasma Intact tracer,[1]; 10 min p.i.,18%
same,% in plasma Polar metabolite M1,[1]; 10 min p.i.,10%
same,% in plasma Polar metabolite M2,[1]; 10 min p.i.,61%
same,% in plasma Polar metabolite M3,[1]; 10 min p.i.,12%
same,% ID Blood,[2]; 2 min p.i.,6.69 ± 0.4 % ID
same,% ID Carcass,[2]; 2 min p.i.,42.54 ± 4.8 % ID
same,% ID Cerebellum,[2]; 2 min p.i.,0.096 ± 0.022 % ID
same,% ID Cerebrum total,[2]; 2 min p.i.,1.030 ± 0.130 % ID
same,% ID Cortex,[2]; 2 min p.i.,0.086 ± 0.017 % ID
same,% ID Heart,[2]; 2 min p.i.,0.81 ± 0.0 % ID
same,% ID Hippocampus,[2]; 2 min p.i.,0.036 ± 0.002 % ID
same,% ID Intestines,[2]; 2 min p.i.,9.51 ± 1.1 % ID
same,% ID Kidneys,[2]; 2 min p.i.,4.68 ± 0.7 % ID
same,% ID Liver,[2]; 2 min p.i.,30.79 ± 4.6 % ID
same,% ID Lungs,[2]; 2 min p.i.,2.27 ± 1.2 % ID
same,% ID Rest of cerebrum,[2]; 2 min p.i.,0.809 ± 0.130 % ID
same,% ID Spleen + Pancreas,[2]; 2 min p.i.,1.57 ± 0.1 % ID
same,% ID Stomach,[2]; 2 min p.i.,2.44 ± 0.3 % ID
same,% ID Striatum,[2]; 2 min p.i.,0.098 ± 0.010 % ID
same,% ID Urine,[2]; 2 min p.i.,0.25 ± 0.1 % ID
same,% ID Blood,[2]; 10 min p.i.,6.27 ± 0.5 % ID
same,% ID Carcass,[2]; 10 min p.i.,37.39 ± 4.9 % ID
same,% ID Cerebellum,[2]; 10 min p.i.,0.020 ± 0.002 % ID
same,% ID Cerebrum total,[2]; 10 min p.i.,0.212 ± 0.006 % ID
same,% ID Cortex,[2]; 10 min p.i.,0.016 ± 0.004 % ID
same,% ID Heart,[2]; 10 min p.i.,0.23 ± 0.0 % ID
same,% ID Hippocampus,[2]; 10 min p.i.,0.006 ± 0.001 % ID
same,% ID Intestines,[2]; 10 min p.i.,10.97 ± 1.5 % ID
same,% ID Kidneys,[2]; 10 min p.i.,6.02 ± 1.2 % ID
same,% ID Liver,[2]; 10 min p.i.,37.83 ± 3.3 % ID
same,% ID Lungs,[2]; 10 min p.i.,0.68 ± 0.1 % ID
same,% ID Rest of cerebrum,[2]; 10 min p.i.,0.159 ± 0.006 % ID
same,% ID Spleen + Pancreas,[2]; 10 min p.i.,0.42 ± 0.0 % ID
same,% ID Stomach,[2]; 10 min p.i.,2.77 ± 0.8 % ID
same,% ID Striatum,[2]; 10 min p.i.,0.031 ± 0.005 % ID
same,% ID Urine,[2]; 10 min p.i.,0.61 ± 0.5 % ID
same,% ID Blood,[2]; 30 min p.i.,4.10 ± 0.6 % ID
same,% ID Carcass,[2]; 30 min p.i.,23.75 ± 1.9 % ID
same,% ID Cerebellum,[2]; 30 min p.i.,0.011 ± 0.005 % ID
same,% ID Cerebrum total,[2]; 30 min p.i.,0.084 ± 0.026 % ID
same,% ID Cortex,[2]; 30 min p.i.,0.006 ± 0.003 % ID
same,% ID Heart,[2]; 30 min p.i.,0.12 ± 0.0 % ID
same,% ID Hippocampus,[2]; 30 min p.i.,0.003 ± 0.001 % ID
same,% ID Intestines,[2]; 30 min p.i.,19.75 ± 5.6 % ID
same,% ID Kidneys,[2]; 30 min p.i.,8.24 ± 0.3 % ID
same,% ID Liver,[2]; 30 min p.i.,29.30 ± 4.8 % ID
same,% ID Lungs,[2]; 30 min p.i.,0.46 ± 0.0 % ID
same,% ID Rest of cerebrum,[2]; 30 min p.i.,0.064 ± 0.024 % ID
same,% ID Spleen + Pancreas,[2]; 30 min p.i.,0.32 ± 0.1 % ID
same,% ID Stomach,[2]; 30 min p.i.,4.81 ± 0.3 % ID
same,% ID Striatum,[2]; 30 min p.i.,0.012 ± 0.001 % ID
same,% ID Urine,[2]; 30 min p.i.,10.80 ± 1.2 % ID
CCCCOc1cncc(-c2nnc3c(C)nc4ccc(CN(C)C)cc4n23)c1 [Compound B-197],PIC50 PDE10,[3]; [7],5.03
same,Hippocampus cAMP (% of Control),[4],122 ± 10 % of Control
same,Hippocampus cGMP (% of Control),[4],104 ± 32 % of Control
same,Striatum cAMP (% of Control),[4],89 ± 6 % of Control
same,Striatum cGMP (% of Control),[4],128 ± 26 % of Control
CCCCOc1ccc(Cl)c(-c2nnc3c(C)nc4ccc(CN(C)C)cc4n23)c1 [Compound B-88],IC50,[3]; [7],2.14 µM
same,Hippocampus cAMP (% of Control),[4],117 ± 20 % of Control
same,Hippocampus cGMP (% of Control),[4],150 ± 42 % of Control
same,Striatum cAMP (% of Control),[4],88 ± 12 % of Control
same,Striatum cGMP (% of Control),[4],121 ± 20 % of Control
Cc1nc2cc(OCCc3ccccn3)ccc2n2c(-c3ccccc3Cl)nnc12 [Compound B-139],IC50,[5],0.0347 µM
same,IC50,[3],0.0631 µM
same,PO Dose at Max Effect,[6]; oral route,10 mg/kg
same,PO Max effect (cumulative agitation score over 60 min),"[6]; oral route, apomorphine 1.0 mg/kg i.v.",22
same,PO LAD (lowest active dose),"[6]; oral route, lowest dose at which ≥67% tested animals respond",> 10 mg/kg
CCOc1ccc(Cl)c(-c2nnc3c(C)nc4ccc(CN5CCC(O)CC5)cc4n23)c1 [Compound B-128],IC50,[5],0.0288 µM
same,IC50,[3],0.229 µM
same,SC Dose at max effect,[6]; subcutaneous route,10 mg/kg
same,SC Max effect (cumulative agitation score over 60 min),"[6]; subcutaneous route, apomorphine 1.0 mg/kg i.v.",21
same,SC LAD (lowest active dose),"[6]; subcutaneous route, lowest dose at which ≥67% tested animals respond",> 10 mg/kg
